According to US12285393B2, “Roles of modulators of intersectin-Cdc42 signaling in Alzheimer's disease” (priority 2017, dated 2025):

Assays:
Cdc42 [1] = target: T1, Cdc42 (Homo sapiens, UniProt P60953); test: Rho-GEF IC50 assay (GEF/DH domain-mediated mant-GTP binding); format: biochemical; design: purchased Cytoskeleton Inc; details: read-out: IC50, GEF/DH domain-mediated mant-GTP binding/Cdc42 activation
Description: (§1) Rho-GEF IC50 Assay: Rho-GEF assay (Cytoskeleton Inc., Denver, Colorado, United States of America) was conducted per manufacturer's instructions (λex=360 nm, λem=460 nm). Briefly, a solution (50 μL) of purified Rho GTPase (1 μM) and mant-GTP (1.5 μM) with or without compound (0.001-500 μM) was prepared and the absorbance monitored for 10-30 min to obtain the background/baseline. The addition of purified GEF/DH domain (0.08-0.2 μM) was carried out simultaneously and the absorbance was recorded for 30-45 min. The linear slope following the addition of the GEF was calculated and expressed as percentage of the control and plotted on an IC50 curve.

Swiss 3T3 cells = test: Immunofluorescence, cell morphology and bradykinin-mediated activation; format: cell-based
Description: Immunofluorescence: Serum-starved Swiss 3T3 cells were pretreated with compound for 2 h before the addition of bradykinin (100 ng/mL) for 20 min. Cells were fixed in 4% paraformaldehyde for 15 min at RT and stored in PBS. Fixed cells were treated with 0.5% Triton for 30 min at RT, 100 mM Glycine 30 min at RT, and 10% BSA for 30 min at 37° C. Primary antibody for GM130 (1:1000, BD Biosciences, Franklin Lakes, New Jersey, United States of America) was used to probe for 1 h at RT followed by CY3-conjugated secondary antibody (1:1000) for 1 h at RT in the dark. Actin was stained with fluorescein-conjugated phalloidin (1:300). Hoechst (1:2500) was used to stain the nuclei. Coverslips were mounted onto slides using antifade medium from Life Technologies (Carlsbad, California, United States of America). Images were taken with a Zeiss Axiovert S100 microscope (Carl Zeiss; Thornwood, New York, United States of America).

RhoA = target: T2, RhoA (Homo sapiens, UniProt P61586); test: Rho-GEF IC50 assay (GEF/DH domain-mediated mant-GTP binding); format: biochemical
T2 construct: purchased Cytoskeleton Inc
Description: as §1

Rac1 = target: T3, Rac1 (Homo sapiens, UniProt P63000); test: as above; format: biochemical
T3 construct: purchased Cytoskeleton Inc
Description: as §1

Cdc42 [2] = target: T1, Cdc42; test: Cdc42-GEF-assay, additional compound screening; format: biochemical; design: purchased Cytoskeleton Inc; details: percentages of ZCL367 normalized to batch; less than 100% = more potent inhibitor
Description: as §1
(§2) Cdc42 (1 μM) was incubated with mant-GTP (1.5 μM) and varying concentrations of ZCL278, ZCL279, or ZCL367 (5-500 μM). Fluorescent readings were taken every minute for 10 m to acquire the baseline. The GEF/DH domain (0.08-0.2 μM) was added followed by readings taken every minute for another 30 m. The linear phase was calculated from within the time period of 12-22 m. Cdc42 (1 μM) was incubated with mant-GTP (1.5 μM) and varying concentrations of ZCL278, ZCL279, or ZCL367 (5-500 μM). Fluorescent readings were taken every minute for 30 m to monitor the binding of mant-GTP in the absence of GEF/DH domain.
Cdc42-GEF-assays were conducted on additional screening compounds in batches of 9 compounds per batch as described above in Example 2 using ZCL278 and ZCL367 as standards. Screening compounds were taken from the Specs Chemistry Database of 197,000 compounds for small molecule or the National Cancer Institute Compound Library. […] These compounds promote Cdc42-mantGTP binding without GEF. It is possible that these compounds can inhibit Cdc42-mantGTP binding with GEF. […] These compounds appear to have activity like ZCL279. […] However, upon the addition of GEF, the compounds appear to facilitate the binding of mantGTP to Cdc42 (high assay slope, relative to ZCL278)

mice = test: Long-term survival after one injection; format: in vivo
Description: Long-term Survival. Groups of 10 mice were treated with one injection of ZCL278 (up to 0.8 mg/g), ZCL279 (up to 0.6 mg/g), or ZCL367 (up to 1.6 mg/g) to examine potential lethal dosage (the maximal dosage tested when no mice died). […] Durations longer than 3 months have not been tested. As a reference, working dosage for the behavioral assessment described below used 20 ug/g for injection, […] than the highest dosage of 0.8 mg/g tested in the long-term survival experiment.

[3] = Solubility profile by optical density; format: physicochemical; details: for Ratio (optical density solution/solvent alone) / optical density of solution: RT, 10 minutes
Excerpt: ZCL278, ZCL279, and ZCL367 were all tested for solubility in the 5 FDA approved solvents to be used in humans. […] Results are shown below in Tables 2-4. Ratio refers to the optical density of the solution comprising the modulator compound/the optical density of the carder/solvent alone.

Cdc42 [4] = target: T1, Cdc42; test: mant-GTP binding to Cdc42 with or without GEF/DH domain; format: biochemical; design: purchased Cytoskeleton Inc; details: 5-500 μM
Description: as §2

C57BL/6 mice = test: Toxicity experiment, I.P. injection; format: in vivo; details: 0.4 mg/g or 0.8 mg/g body weight I.P.; 1 hour or 2 weeks
Description: (§3) ZCL 278 Toxicity Experiment: Individual C57BL/6 mice of 4-6 months of age from Jackson Laboratory (Bar Harbor, Maine, United States of America) were submitted to ZCL278 treatment for 5 minutes, 30 minutes, 2 hours and 24 hours. The dosage of ZCL278 for each mouse was 0.8 mg/g body weight delivered via intraperitoneal (I.P.) injection of a 15 mg/ml solution of ZCL278 was dissolved in the sesame oil (10% DMSO).
as §3, with “279” for “278”, “ZCL279” for “ZCL278”, “0.6” for “0.8”
ZCL367 Toxicity Experiment: Individual C57BL/6 mice of 4-6 months of age from Jackson Laboratory (Bar Harbor, Maine, United States of America) were submitted to ZCL367 treatment for 1 hour or 2 weeks. The dosage of ZCL367 for each time period was 0.4 mg/g body weight or 0.8 mg/g body weight, delivered via I.P. injection. […] Mice were sacrificed after end of 1 hour or 2 weeks.

[5] = Polyethylene Glycol300 (PEG-300), 30%

T1 sequence (P60953 whole entry, the tested form may be a part): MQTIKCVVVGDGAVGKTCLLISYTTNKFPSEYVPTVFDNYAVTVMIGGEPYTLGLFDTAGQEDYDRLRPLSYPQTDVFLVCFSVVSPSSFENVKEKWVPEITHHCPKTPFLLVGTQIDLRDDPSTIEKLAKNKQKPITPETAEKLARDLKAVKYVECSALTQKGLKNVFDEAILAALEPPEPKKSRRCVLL
T2 sequence (P61586 whole entry, the tested form may be a part): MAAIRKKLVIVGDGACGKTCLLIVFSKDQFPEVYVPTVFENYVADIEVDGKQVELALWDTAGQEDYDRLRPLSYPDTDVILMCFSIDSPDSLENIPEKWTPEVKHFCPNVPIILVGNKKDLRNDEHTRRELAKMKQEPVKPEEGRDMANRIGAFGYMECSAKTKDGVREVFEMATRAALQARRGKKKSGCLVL

O=C(N/N=C/c1ccccc1O)c1cc(O)cc(O)c1 [ZCL367, (E)-3,5-dihydroxy-N′-(2-hydroxybenzylidene)benzohydrazide]
IC50 (Cdc42 [1]): 98 nM | bradykinin-mediated activation (Swiss 3T3 cells; Swiss 3T3 cells, bradykinin 100 ng/mL): inhibit bradykinin-mediated activation | changes to cell morphology (Swiss 3T3 cells; after 4 h of treatment, more drastic after six hours): no effects on cell morphology | IC50 (RhoA): 29.7 µM | IC50 (Rac1): 190 nM | % ZCL367 (inhibitor activity) (Cdc42 [2]): 100% | Lethal Dosage (mice; mouse, in vivo): 0.8 mg/g | Longest Dosing Duration (mice; mouse, in vivo): 2 months | deaths in long-term survival (mice; one injection, 1.6 mg/g, in 1 month): one (day 20) out of four mice died | Ratio (optical density solution/solvent alone) ([3]; 1,2-Propanediol, 40%): 2.667 | optical density of solution ([3]; 1,2-Propanediol, 40%): 0.104 | Ratio (optical density solution/solvent alone) ([3]; Dimethyl Sulfoxide (DMSO)): 1.048 | optical density of solution ([3]; Dimethyl Sulfoxide (DMSO)): 0.044 | Ratio (optical density solution/solvent alone) ([3]; Pluronic F-68, 10%): 2.026 | optical density of solution ([3]; Pluronic F-68, 10%): 0.079 | Ratio (optical density solution/solvent alone) [3, 5]: 2.333 | optical density of solution [3, 5]: 0.091 | Ratio (optical density solution/solvent alone) ([3]; Sesame Oil): 2.636 | optical density of solution ([3]; Sesame Oil): 0.116 | Ratio (optical density solution/solvent alone) ([3]; Sterile Water): 5.211 | optical density of solution ([3]; Sterile Water): 0.198 | Ratio (optical density solution/solvent alone) ([3]; Tween-80, 0.4%): 3.579 | optical density of solution ([3]; Tween-80, 0.4%): 0.136 | Ratio (optical density solution/solvent alone) ([3]; dPBS): 2.974 | optical density of solution ([3]; dPBS): 0.113 | solubility ([3]; in DM19): completely soluble | effect on Cdc42 (mant-GTP binding) (Cdc42 [4]; in the absence of GEF domain): has no effect | effect on Cdc42 (mant-GTP binding) (Cdc42 [4]; in the presence of GEF domain): acts as an inhibitor | gross anatomic toxicity (liver, kidney, spleen) (C57BL/6 mice): no gross anatomic toxicity
